This is an account of results in ChEMBL document CHEMBL1201862, “PubChem BioAssay data set” (2004).

Among the test systems are HCC 2998; SK-OV-3; NCI-H23; TK-10; U-251; SF-539; CCRF-CEM; HCT-15; SK-MEL-2; A549; NCI-H226; K562; NCI-H522; UO-31; SNB-19; SF-295; CAKI-1; NCI/ADR-RES; MCF7.
Assay in all cases: NCI tumour cell line growth inhibition, 48 h

The structures appear in SMILES notation.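 Assay format: 96-well plates, 48-hour exposure. Abbreviation: GI50, concentration required for 50% inhibition of growth.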 The source made the active and inactive calls. No stated cut-off is given here; in the data, active = GI50 up to about 1.1 µM and inactive = higher.

For `Cc1cccc2c1c1ccc3c(c1n2C)C(=O)C=CC3=O`, the GI50 in the assay with HCC 2998 is 18.2 µM (inactive); in the assay with SK-OV-3, 20.1 µM (inactive); in the assay on NCI-H23 it was 13.5 µM (inactive); in the assay on TK-10, 2.79 µM (inactive); in the assay with U-251, 10.3 µM (inactive); in the assay on SF-539, 4.56 µM (inactive). Also, the GI50 was 0.468 µM (active) in the assay on CCRF-CEM; 5.18 µM with HCT-15; 15.6 µM (inactive) in the assay on SK-MEL-2; 18.9 µM (inactive) in the assay with A549; 17.3 µM (inactive) in the assay on NCI-H226; 1.95 µM (inactive) in the assay on K562. Further, the GI50 in the assay on NCI-H522 was 1.51 µM (inactive); in the assay with UO-31 it was 3.4 µM (inactive); with SNB-19 it was 16.7 µM (inactive); in the assay with SF-295, 16.3 µM (inactive); in the assay with CAKI-1 it was 3.2 µM (inactive).
`CC(=O)CC(=O)Nc1ccc(OS(N)(=O)=O)cc1`: the GI50 in the assay on HCC 2998, in the assay with SK-OV-3, in the assay with NCI-H23, with TK-10, in the assay with U-251 and in the assay on SF-539 was > 100 µM (inactive) each time. Besides, the GI50 with CCRF-CEM is > 100 µM (inactive); in the assay with HCT-15, > 100 µM; in the assay with SK-MEL-2 it was > 100 µM (inactive); in the assay on A549, > 100 µM (inactive); in the assay with NCI-H226, > 100 µM (inactive); with K562, > 100 µM (inactive). Moreover, the GI50 in the assay on NCI-H522, with UO-31, in the assay on SNB-19, in the assay on SF-295 and in the assay on CAKI-1 was > 100 µM (inactive) each time.
On to `CCCCCCC(=O)OC[n+]1ccc(-c2c(COC(=O)NC(C)C)c(COC(=O)NC(C)C)c3n2CCC3)cc1`, for which the GI50 in the assay with HCC 2998 was > 100 µM (inactive); in the assay with SK-OV-3 it was > 100 µM (inactive); in the assay with NCI-H23 it was 48.9 µM (inactive); in the assay with TK-10, > 100 µM (inactive); in the assay with U-251 it was > 80.4 µM (inactive); in the assay on SF-539, 45.1 µM (inactive). Further, the GI50 with CCRF-CEM was 24.6 µM (inactive); in the assay with HCT-15 it was > 100 µM; in the assay with NCI/ADR-RES it was > 100 µM (inactive); in the assay on SK-MEL-2, > 100 µM (inactive); in the assay with MCF7, 45.8 µM (inactive); in the assay with A549, > 87.7 µM (inactive). The GI50 with NCI-H226 is > 100 µM (inactive); in the assay with K562, > 100 µM (inactive); with NCI-H522 it was 57 µM (inactive); in the assay on UO-31 it was > 100 µM (inactive); in the assay with SNB-19 it was > 100 µM (inactive); in the assay on SF-295, > 75.2 µM (inactive). The GI50 in the assay on CAKI-1 is 30.8 µM (inactive).
In the case of `C[C@]12CC[C@H](O)CC1=CC[C@@H]1C2CC[C@]2(C)C(=O)NC(=O)CC12` (some centres undefined), the GI50 in the assay with HCC 2998, with SK-OV-3, in the assay with NCI-H23, in the assay on TK-10, with U-251 and with SF-539 was > 100 µM (inactive) in each case. For the same compound, the GI50 with CCRF-CEM is 35.4 µM (inactive); with HCT-15, > 100 µM; in the assay with SK-MEL-2, 64.7 µM (inactive); in the assay with A549 it was > 100 µM (inactive); with NCI-H226, > 100 µM (inactive); with K562, 29 µM (inactive). The GI50 with NCI-H522 was 63 µM (inactive); with UO-31 it was > 100 µM (inactive); in the assay with SNB-19 it was > 100 µM (inactive); in the assay on SF-295 it was > 100 µM (inactive); with CAKI-1 it was > 100 µM (inactive).
For the compound `C=C(c1ccccc1)[C@@]1(O)CCCC[C@H]1NC(c1ccccc1)c1ccccc1`, the GI50 with HCC 2998 was 12.6 µM (inactive); in the assay with SK-OV-3, 19.1 µM (inactive); with NCI-H23, 8.3 µM (inactive); with TK-10, 16.3 µM (inactive); in the assay on U-251, 10.7 µM (inactive); in the assay with SF-539, 15.9 µM (inactive). Besides, the GI50 in the assay with CCRF-CEM was 4.34 µM (inactive); in the assay on HCT-15, 10.9 µM; in the assay with SK-MEL-2 it was 13.3 µM (inactive); in the assay on A549, 11.8 µM (inactive); in the assay with NCI-H226 it was 6.97 µM (inactive); in the assay with K562, 7.69 µM (inactive). The GI50 was 8.85 µM (inactive) in the assay with NCI-H522; 14.5 µM (inactive) in the assay on UO-31; 15.7 µM (inactive) in the assay with SNB-19; 12.1 µM (inactive) in the assay on SF-295; 7.67 µM (inactive) in the assay with CAKI-1.
Take `CCOC(=O)/C(=C\c1ccc(OCc2ccccc2)c(OC)c1)C(=O)c1ccccc1`: the GI50 in the assay with HCC 2998 was 36.1 µM (inactive); with SK-OV-3 it was 64.9 µM (inactive); in the assay with NCI-H23, 19.3 µM (inactive); in the assay with TK-10 it was 27.5 µM (inactive); in the assay on U-251, 17.3 µM (inactive); in the assay on SF-539, 16.7 µM (inactive). Besides, the GI50 in the assay on CCRF-CEM was 23.6 µM (inactive); in the assay with HCT-15, 20.4 µM; in the assay on SK-MEL-2 it was 19.6 µM (inactive); with A549, > 10 µM (inactive); with NCI-H226, 25.7 µM (inactive); with K562, 19.9 µM (inactive). Further, the GI50 was 17.7 µM (inactive) in the assay with NCI-H522; 18.1 µM (inactive) in the assay with UO-31; 27.7 µM (inactive) with SNB-19; 22.3 µM (inactive) in the assay with SF-295; 24.7 µM (inactive) in the assay with CAKI-1.
Consider `COC(=O)C1(C)CC2C(C)(CCC3(C)C4=CC=C5C(=CC(=O)C(O)=C5C)C4(C)CCC23C)CC1O` (centres undefined), for which the GI50 with HCC 2998 was 1.56 µM (inactive); with SK-OV-3 it was 2.07 µM (inactive); with NCI-H23, 2.05 µM (inactive); in the assay on TK-10 it was 0.624 µM (active); in the assay with U-251, 1.09 µM (active); with SF-539 it was 1.1 µM (active). The GI50 in the assay on CCRF-CEM is 0.157 µM (active); in the assay on HCT-15 it was 0.334 µM; in the assay on NCI/ADR-RES it was 1.06 µM (active); in the assay on SK-MEL-2, 1.68 µM (inactive); in the assay with MCF7, 1.6 µM (inactive); in the assay on A549, 2.29 µM (inactive). Besides, the GI50 is 2.12 µM (inactive) with NCI-H226; 0.284 µM (active) with K562; 0.2 µM (active) in the assay with NCI-H522; 1.35 µM (inactive) in the assay with UO-31; 1.59 µM (inactive) with SNB-19; 1.78 µM (inactive) in the assay on SF-295. Further, in the assay on CAKI-1, the GI50 is 0.902 µM (active).
Consider `CC(=S)NNC(=O)c1ccncc1`, for which the GI50 in the assay on HCC 2998, in the assay on SK-OV-3, with NCI-H23, with TK-10, in the assay on U-251 and with SF-539 was > 100 µM (inactive) each time. The GI50 in the assay with CCRF-CEM was > 100 µM (inactive); in the assay on HCT-15 it was > 100 µM; in the assay on SK-MEL-2, > 100 µM (inactive); in the assay with A549 it was > 100 µM (inactive); in the assay on NCI-H226, > 100 µM (inactive); in the assay with K562, > 100 µM (inactive). Also, the GI50 in the assay on NCI-H522, with UO-31, with SNB-19, in the assay with SF-295 and in the assay on CAKI-1 was > 100 µM (inactive) in each case.
`O=C1C=Cc2cscc21`: the GI50 is > 100 µM (inactive) with SK-OV-3; 21.2 µM (inactive) with NCI-H23; 42.5 µM (inactive) with TK-10; 37.9 µM (inactive) with U-251; > 100 µM (inactive) in the assay with SF-539; 22.6 µM (inactive) in the assay on CCRF-CEM. In addition, the GI50 in the assay on HCT-15 was 22.7 µM; with NCI/ADR-RES it was 28.8 µM (inactive); in the assay on SK-MEL-2, 79.1 µM (inactive); with MCF7 it was 15.3 µM (inactive); in the assay with A549 it was 62.7 µM (inactive); in the assay with K562, 31.9 µM (inactive). Also, the GI50 was 19.6 µM (inactive) with NCI-H522; 26.2 µM (inactive) in the assay on UO-31; 78.2 µM (inactive) with SNB-19; 49.4 µM (inactive) with SF-295; 27.4 µM (inactive) with CAKI-1.
Turning to `O=C1c2cc3c(cc2CC12Cc1cc4c(cc1C2=O)CCC4)CCC3`, the GI50 with HCC 2998, in the assay on SK-OV-3, with NCI-H23, in the assay on TK-10, with U-251 and in the assay on SF-539 was > 100 µM (inactive) each time. In addition, the GI50 in the assay with CCRF-CEM is > 100 µM (inactive); in the assay on HCT-15, > 100 µM; in the assay on NCI/ADR-RES, > 100 µM (inactive); in the assay on SK-MEL-2, > 100 µM (inactive); in the assay with MCF7, > 100 µM (inactive); in the assay with A549 it was > 100 µM (inactive). Besides, the GI50 with NCI-H226, with K562, in the assay on NCI-H522, in the assay with UO-31, in the assay on SNB-19 and with SF-295 was > 100 µM (inactive) each time. Moreover, the GI50 with CAKI-1 is > 100 µM (inactive).
With `COc1cccc2c1NC(=O)Cc1c-2[nH]c2ccccc12`, the GI50 in the assay with HCC 2998 is > 100 µM (inactive); with SK-OV-3 it was > 100 µM (inactive); in the assay on NCI-H23, 81.5 µM (inactive); in the assay on TK-10, > 100 µM (inactive); with U-251, > 100 µM (inactive); in the assay with SF-539, > 100 µM (inactive). Moreover, the GI50 is > 100 µM (inactive) in the assay on CCRF-CEM; 73.8 µM in the assay on HCT-15; 82.2 µM (inactive) in the assay with NCI/ADR-RES; > 100 µM (inactive) in the assay with SK-MEL-2; 88.5 µM (inactive) with MCF7; > 100 µM (inactive) with A549. Also, the GI50 in the assay on NCI-H226 was > 100 µM (inactive); in the assay on K562, 53.1 µM (inactive); in the assay with NCI-H522, 49.9 µM (inactive); with UO-31 it was > 100 µM (inactive); with SF-295, > 100 µM (inactive); in the assay on CAKI-1, > 100 µM (inactive).
